Patent US8378104B2 (OSI Pharmaceuticals, LLC, priority 2010, dated 2013)
Structures can show the parent of a compound that is named as a salt.

target: T1, TAK1-TAB1 fusion protein (Homo sapiens, UniProt O43318); assay: TAK1 biochemical assay (AlphaScreen, GST-MAP2K7 substrate); details: TAK1-TAB1 fusion protein, GST-MAP2K7 substrate; read-out: mean TAK1 IC50 (Col. A)
T1 construct: purchased Carna
T1 sequence (O43318 with tags, fused parts or gaps limits assumed): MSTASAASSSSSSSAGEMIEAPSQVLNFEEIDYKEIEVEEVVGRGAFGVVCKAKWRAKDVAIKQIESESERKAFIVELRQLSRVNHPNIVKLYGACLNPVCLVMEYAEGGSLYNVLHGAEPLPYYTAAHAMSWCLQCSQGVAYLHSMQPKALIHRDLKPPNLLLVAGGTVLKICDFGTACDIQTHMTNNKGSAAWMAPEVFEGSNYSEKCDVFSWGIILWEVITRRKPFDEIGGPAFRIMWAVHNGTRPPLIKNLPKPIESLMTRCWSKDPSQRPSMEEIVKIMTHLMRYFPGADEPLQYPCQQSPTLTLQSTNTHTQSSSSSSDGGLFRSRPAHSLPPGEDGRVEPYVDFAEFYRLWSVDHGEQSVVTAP

IC50	Compound
1 to 10 µM	Nc1ncc(-c2cnn(C3CCNCC3)c2)c2cc(-c3cc(F)cc(F)c3)oc12 [Example 8, 2-(3,5-difluorophenyl)-4-[1-(piperidin-4-yl)-1H-pyrazol-4-yl]furo[2,3-c]pyridin-7-amine]
1 to 10 µM	Cn1cnc2cc(-c3oc4c(N)ncc(-c5cnn(C6CCNCC6)c5)c4c3Cl)cnc21 [Example 15, 3-chloro-2-(3-methyl-3H-imidazo[4,5-b]pyridine-6-yl)-4-[1-(piperidin-4-yl)-1H-pyrazol-4-yl]furo[2,3-c]pyridin-7-amine hydrochloride]
> 10 µM	CC(=O)N1CCC(n2cc(-c3cnc(N)c4oc(-c5cccc(OCc6ccc(Cl)cc6)c5)cc34)cn2)CC1 [Example 206, 1-{4-[4-(7-amino-2-{3-[(4-chlorobenzyl)oxy]phenyl}furo[2,3-c]pyridin-4-yl)-1H-pyrazol-1-yl]piperidin-1-yl}ethanone]
0.1 to 1 µM	CC(=O)N1CCC(n2cc(-c3cnc(N)c4oc(-c5cccc(C(N)=O)c5)cc34)cn2)CC1 [Example 122, 3-{4-[1-(1-acetylpiperidin-4-yl)-1H-pyrazol-4-yl]-7-aminofuro[2,3-c]pyridin-2-yl}benzamide]
1 to 10 µM	CC(=O)N1CCC(n2cc(-c3cnc(N)c4oc(-c5ccc(N)c(C#N)c5)cc34)cn2)CC1 [Example 104, 5-{4-[1-(1-acetylpiperidin-4-yl) 1H-pyrazol-4-yl]-7-aminofuro[2,3-c]pyridin-2-yl}-2-aminobenzonitrile]
1 to 10 µM	Nc1ncc(-c2cnn(C3CCNCC3)c2)c2cc(-c3ccc4[nH]c(=O)[nH]c4c3)oc12 [Example 25, 5-{7-amino-4-[1-(piperidin-4-yl)-1H-pyrazol-4-yl]furo[2,3-c]pyridine-2-yl}-1,3-dihydro-2H-benzimidazol-2-one]
> 10 µM	COc1ccccc1COc1cccc(-c2cc3c(-c4cnn(C5CCN(C(C)=O)CC5)c4)cnc(N)c3o2)c1 [Example 212, 1-{4-[4-(7-amino-2-{3-[(2-methoxybenzyl)oxy]phenyl}furo[2,3-c]pyridin-4-yl)-1H-pyrazol-1-yl]piperidin-1-yl}ethanone]
1 to 10 µM	Nc1ncc(-c2cnn(C3CCNCC3)c2)c2cc(-c3cccc4c3NC(=O)C4)oc12 [Example 44, 7-{7-amino-4-[1-(piperidin-4-yl)-1H-pyrazol-4-yl]furo[2,3-c]pyridine-2-yl}-1,3-dihydro-2H-indol-2-one]
0.1 to 1 µM	CC(=O)N1CCC(n2cc(-c3cnc(N)c4oc(-c5cccc6c5cnn6C)cc34)cn2)CC1 [Example 214, 1-(4-{4-[7-amino-2-(1-methyl-1H-indazol-4-yl)furo[2,3-c]pyridin-4-yl]-1H-pyrazol-1-yl}piperidin-1-yl)ethanone]
1 to 10 µM	Nc1ncc(-c2cnn(C3CCNCC3)c2)c2cc(C3=CCNCC3)oc12 [Example 49, 4-[1-(piperidin-4-yl)-1H-pyrazol-4-yl]-2-(1,2,3,6-tetrahydropyridin-4-yl)furo[2,3-c]pyridin-7-amine dihydrochloride]
1 to 10 µM	Cc1nn([C@H]2CC[C@H](O)CC2)cc1-c1cnc(N)c2oc(-c3csc4cnccc34)cc12 [Example 304, 4-[4-(7-amino-2-thieno[2,3-c]pyridin-3-yl-furo[2,3-c]pyridin-4-yl)-3-methyl-pyrazol-1-yl]-cyclohexanol]
1 to 10 µM	Nc1ncc(-c2cnn(C3CCNCC3)c2)c2cc(-c3cccc4ccsc34)oc12 [Example 17, 4-{4-[7-amino-2-(1-benzothiophen-7-yl)furo[2,3-c]pyridine-4-yl]-1H-pyrazol-1-yl}piperidine hydrochloride]
1 to 10 µM	COc1ccc(COc2cccc(-c3cc4c(-c5cnn(C6CCN(C(C)=O)CC6)c5)cnc(N)c4o3)c2)cc1 [Example 182, 1-{4-[4-(7-amino-2-{3-[(4-methoxybenzyl)oxy]phenyl}furo[2,3-c]pyridin-4-yl)-1H-pyrazol-1-yl]piperidin-1-yl}ethanone]
0.1 to 1 µM	Nc1ncc(-c2cnn([C@H]3CC[C@H](O)CC3)c2)c2cc(-c3cccc4ccsc34)oc12 [Example 232, trans-4-{4-[7-amino-2-(1-benzothiophen-7-yl)furo[2,3-c]pyridin-4-yl]-1H-pyrazol-1-yl}cyclohexanol diformate salt]
1 to 10 µM	CC(=O)N1CCC(n2cc(-c3cnc(N)c4oc(-c5cccc(OCC(F)(F)F)c5)cc34)cn2)CC1 [Example 187, 1-[4-(4-{7-amino-2-[3-(2,2,2-trifluoroethoxy)phenyl]furo[2,3-c]pyridin-4-yl}-1H-pyrazol-1-yl)piperidin-1-yl]ethanone]
> 10 µM	CC(=O)N1CCC(n2cc(-c3cnc(N)c4oc(-c5cccc(OCC6CCCCC6)c5)cc34)cn2)CC1 [Example 209, 1-[4-(4-{7-amino-2-[3-(cyclohexylmethoxy)phenyl]furo[2,3-c]pyridin-4-yl}-1H-pyrazol-1-yl)piperidin-1-yl]ethanone]

IC50	Compound
1 to 10 µM	CC(=O)N1CCC(n2cc(-c3cnc(N)c4oc(-c5ccc(NS(C)(=O)=O)cc5)cc34)cn2)CC1 [Example 121, N-(4-{4-[1-(1-acetylpiperidin-4-yl)-1H-pyrazol-4-yl]-7-aminofuro[2,3-c]pyridin-2-yl}phenyl)methanesulfonamide]
1 to 10 µM	Cc1cc(-c2cnc(N)c3oc(-c4csc5cnccc45)cc23)c(C)s1 [Example 377, 4-(2,5-dimethyl-thiophen-3-yl)-2-thieno[2,3-c]pyridin-3-yl-furo[2,3-c]pyridin-7-ylamine]
1 to 10 µM	CC(=O)N1CCC(n2cc(-c3cnc(N)c4oc(C5=CCCC5)cc34)cn2)CC1 [Example 153, 1-(4-{4-[7-amino-2-(cyclopent-1-en-1-yl)furo[2,3-c]pyridin-4-yl]-1H-pyrazol-1-yl}piperidin-1-yl)ethanone]
1 to 10 µM	CC(=O)N1CCC(n2cc(-c3cnc(N)c4oc(-c5cccc(C(=O)N6CCOCC6)c5)cc34)cn2)CC1 [Example 127, 1-[4-(4-{7-amino-2-[3-(morpholin-4-ylcarbonyl)phenyl]furo[2,3-c]pyridin-4-yl}-1H-pyrazol-1-yl)piperidin-1-yl]ethanone]
1 to 10 µM	Nc1ncc(-c2cnn(C3CCNCC3)c2)c2cc(-c3cccc(Cl)c3Cl)oc12 [Example 4, 2-(2,3-dichlorophenyl)-4-[1-(piperidin-4-yl)-1H-pyrazol-4-yl]furo[2,3-c]pyridin-7-amine]
1 to 10 µM	Nc1ncc(-c2cnn([C@H]3CC[C@H](O)CC3)c2)c2cc(-c3ccc4c(c3)CNC4=O)oc12 [Example 404, 5-{7-amino-4-[1-(trans-4-hydroxycyclohexyl)-1H-pyrazol-4-yl]furo[2,3-c]pyridin-2-yl}-2,3-dihydro-1H-isoindol-1-one]
0.1 to 1 µM	Nc1cc(-c2cc3c(-c4cnn(C5CCNCC5)c4)cnc(N)c3o2)cnc1Cl [Example 43, 2-(5-amino-6-chloropyridin-3-yl)-4-[1-(piperidin-4-yl)-1H-pyrazol-4-yl]furo[2,3-c]pyridine-7-amine]
1 to 10 µM	Nc1ncc(-c2cnn([C@H]3CC[C@H](O)CC3)c2)c2cc(-c3cc(-c4cccc(F)c4)cc4nnsc34)oc12 [Example 369, trans-4-(4-{7-amino-2-[5-(3-fluorophenyl)-1,2,3-benzothiadiazol-7-yl]furo[2,3-c]pyridin-4-yl}-1H-pyrazol-1-yl)cyclohexanol]
1 to 10 µM	CC(=O)N1CCC(n2cc(-c3cnc(N)c4oc(C5CCCC5)cc34)cn2)CC1 [Example 198, 1-{4-[4-(7-amino-2-cyclopentylfuro[2,3-c]pyridin-4-yl)-1H-pyrazol-1-yl]piperidin-1-yl}ethanone]
> 10 µM	CC(=O)N1CCC(n2cc(-c3cnc(N)c4oc(-c5cccc(Oc6ccccc6)c5)cc34)cn2)CC1 [Example 186, 1-(4-{4-[7-amino-2-(3-phenoxyphenyl)furo[2,3-c]pyridin-4-yl]-1H-pyrazol-1-yl}piperidin-1-yl)ethanone]
1 to 10 µM	Nc1ccc(-c2cc3c(-c4cnn(C5CCNCC5)c4)cnc(N)c3o2)cn1 [Example 20, 2-(6-aminopyridin-3-yl)-4-[1-(piperidin-4-yl)-1H-pyrazol-4-yl]furo[2,3-c]pyridine-7-amine]
> 10 µM	COc1cccc(COc2cccc(-c3cc4c(-c5cnn(C6CCN(C(C)=O)CC6)c5)cnc(N)c4o3)c2)c1 [Example 207, 1-{4-[4-(7-amino-2-{3-[(3-methoxybenzyl)oxy]phenyl}furo[2,3-c]pyridin-4-yl)-1H-pyrazol-1-yl]piperidin-1-yl}ethanone]
> 10 µM	Cn1cc(-c2cnc(N)c3oc(-c4csc5cnccc45)cc23)c(C#N)n1 [Example 345, 4-(7-amino-2-thieno[2,3-c]pyridin-3-yl-furo[2,3-c]pyridin-4-yl)-1-methyl-1H-pyrazole-3-carbonitrile]
1 to 10 µM	Nc1ncc(-c2cnn(C3CCCCC3)c2)c2cc(-c3cccc4cnccc34)oc12 [Example 73, 4-(1-cyclohexyl-1H-pyrazol-4-yl)-2-(isoquinolin-5-yl)furo[2,3-c]pyridin-7-amine]
> 10 µM	Cn1cc2c(-c3cc4c(-c5cnn([C@H]6CC[C@H](O)CC6)c5)cnc(N)c4o3)csc2cc1=O [Example 259, 3-{7-amino-4-[1-(trans-4-hydroxycyclohexyl)-1H-pyrazol-4-yl]furo[2,3-c]pyridin-2-yl}-5-methylthieno[3,2-c]pyridin-6(5H)-one]
0.1 to 1 µM	CC(=O)N1CCC(n2cc(-c3cnc(N)c4oc(-c5cccc(OCc6ccncc6)c5)cc34)cn2)CC1 [Example 203, 1-[4-(4-{7-amino-2-[3-(pyridin-4-ylmethoxy)phenyl]furo[2,3-c]pyridin-4-yl}-1H-pyrazol-1-yl)piperidin-1-yl]ethanone]
